Patent US20180263985A1, “MODULATORS OF TOLL-LIKE RECEPTORS FOR THE TREATMENT OF HIV” (Gilead Sciences, Inc., priority 2015, published 2018)

System: B Cells
Assay: Immune cell activation in PBMC cultures, flow cytometry: B cells
Format: cell-based, human
Conditions: for B Cells CD69 Fold / B Cells CD80 Fold / B Cells CD69 % / B Cells CD80 %: 2 days, N = 4
Method: TLR8 is expressed on multiple immune cell subsets. To determine how treatment with a TLR8 modulating compound affects activation of distinct cell populations, PBMCs were purified from HIV-1 infected subjects on cART, as described in Example 121 (anonymized participant IDs 184, 185, 188, 189, 190, and 191). […] After incubation, PBMCs were harvested and stained with antibodies conjugated to specific fluorophores (BD Biosciences) to delineate immune cell subsets: CD4 T cells (CD3+CD4+CD8−), CD8 T cells (CD3+CD8+CD4−), NK cells (CD3−CD56+CD16+), monocytes (CD3−CD14+), B cells (CD3−CD19+), and peripheral dendritic cells (DCs), defined as positive for HLA-DR and negative for a panel of markers: CD3, CD14, CD16, CD19, CD20, CD56 (Lin-1 lineage panel, BD Biosciences).
Additional markers of activation, maturation, and effector function were included for cell subsets, as follows: CD4 and CD8 T cells (CD25, CD38, CD69, IFN-γ, granzyme B, perforin, TNF-α), NK cells (CD25, CD69, IFN-γ), monocytes (CD11c, CD16, CD80, CD86, CD163, TNF-α), B cells (CD40, CD69, CD80, CD86), and DC (CD11c, CD69, CD80, CD86, CD123, and CD163). Cells were stained for surface markers (CD3, CD4, CD8, CD11c, CD14, CD16, CD25, CD69, CD80, CD86, CD163), washed, treated with fixation and permeabilization buffer (eBioscience), and stained for intracellular markers (IFN-γ, granzyme B, perforin, TNF-α). Cells were evaluated by flow cytometry on a LSR Fortessa (BD Biosciences), and data was analyzed with FlowJo software (TreeStar).
Data are expressed as geometric mean percentage (%) and as geometric mean fold-activation (Fold) for each marker and for each PBMC subset obtained from 4 or 6 subjects, as indicated. Fold activation is calculated as a ratio of the % positive for each marker for each PBMC subset at the indicated concentration of the compound of Example 15 relative to % positive for DMSO treated samples. Fold activations that are 1.5 are in bold.

CCCC[C@H](CO)Nc1nc(N)nc2cccnc12 [Example 15]
B Cells CD69 Fold (10 nM vs DMSO): 1.2 fold | B Cells CD80 Fold (10 nM vs DMSO): 1.6 fold | B Cells CD69 % (10 nM): 10.0% | B Cells CD80 % (10 nM): 2.6% | B Cells CD69 Fold (100 nM vs DMSO): 0.5 fold | B Cells CD80 Fold (100 nM vs DMSO): 1.1 fold | B Cells CD69 % (100 nM): 3.9% | B Cells CD80 % (100 nM): 1.7% | B Cells CD69 Fold (1000 nM vs DMSO): 1.1 fold | B Cells CD80 Fold (1000 nM vs DMSO): 1.4 fold | B Cells CD69 % (1000 nM): 9.1% | B Cells CD80 % (1000 nM): 2.2% | B Cells CD69 Fold (3000 nM vs DMSO): 1.7 fold | B Cells CD80 Fold (3000 nM vs DMSO): 1.9 fold | B Cells CD80 % (3000 nM): 3.0% | Concentration of maximal activation of B cells (increased expression of CD69 and CD80): 3000 nM
